These results are taken from patent publication US7655679B2, “Derivatives of 2-aminothiazoles and 2-amino-oxazoles, processes for their preparation and their use as pharmaceutical compositions” (Sanofi-Aventis, priority 2005, dated 2010).

Structures can show the parent of a compound that is named as a salt. Where two headings read alike, the source gives them in different places.

For assay [1] the following is noted: two weeks clinical trials in healthy volunteers; cited from earlier work.
The conditions of assay [2]: rhesus monkeys; cited from earlier work.
For assay [3] the following is noted: cynomoigus monkeys; cited from earlier work.
In assay [4] the target is T1, human PPARdelta (Homo sapiens, UniProt Q03181).
T1 construct: amino acids S139-Y441; expressed in transfected cells; host or cells: HEK (human embryo kidney) cells, stably transfected; plasmid pcDNA3
T1 sequence (Q03181 139-441): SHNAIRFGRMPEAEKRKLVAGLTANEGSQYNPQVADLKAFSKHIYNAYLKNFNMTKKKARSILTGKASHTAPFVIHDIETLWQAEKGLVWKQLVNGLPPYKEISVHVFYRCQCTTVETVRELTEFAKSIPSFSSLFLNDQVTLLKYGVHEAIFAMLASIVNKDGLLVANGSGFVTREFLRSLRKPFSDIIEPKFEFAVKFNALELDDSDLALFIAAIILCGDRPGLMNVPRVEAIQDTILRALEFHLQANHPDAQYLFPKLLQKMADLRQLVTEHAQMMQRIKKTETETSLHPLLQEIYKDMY
As to the kind of experiment: Cellular PPARdelta assay (luciferase reporter, stably transfected HEK cell line). It is filed as cell-based. The conditions noted are these: GR-GAL4-humanPPARdelta-LBD. The method, then:
Determination of EC50 Values of PPAR Agonists in the Cellular PPARdelta Assay
(§1) The potency of substances which bind to human PPARdelta and activate it in an agonistic manner is analyzed using a stably transfected HEK cell line (HEK=human embryo kidney) which is referred to here as PPARdelta reporter cell line. In analogy to the assay described for PPARalpha, the PPARdelta reporter cell line also contains two genetic elements, a luciferase reporter element (pdeltaM-GAL4-Luc-Zeo) and a PPARdelta fusion protein (GR-GAL4-humanPPARdelta-LBD) which mediates expression of the luciferase reporter element depending on a PPARdelta ligand. The stably and constitutively expressed fusion protein GR-GAL4-humanPPARdelta-LBD binds in the cell nucleus of the PPARdelta reporter cell line via the GAL4 protein portion to the GAL4 DNA binding motifs 5′-upstream of the luciferase reporter element which is stably integrated in the genome of the cell line. There is only little expression of the luciferase reporter gene in the absence of a PPARdelta ligand if fatty acid-depleted fetal calf serum (cs-FCS) is used in the assay. PPARdelta ligands bind and activate the PPARdelta fusion protein and thereby stimulate expression of the luciferase reporter gene. The luciferase which is formed can be detected by means of chemiluminescence via an appropriate substrate.
The production of the stable PPARdelta reporter cell line is based on a stable HEK-cell clone which was stably transfected with a luciferase reporter element. This step was already described above in the section “construction of the PPARalpha reporter cell line”. In a second step, the PPARdelta fusion protein (GR-GAL4-humanPPARdelta-LBD was stably introduced into this cell clone. For this purpose, the cDNA coding for the N-terminal 76 amino acids of the glucocorticoid receptor (Accession # P04150) was linked to the cDNA section coding for amino acids 1-147 of the yeast transcription factor GAL4 (Accession # P04386). The cDNA of the ligand-binding domain of the human PPARdelta receptor (amino acids S139-Y441; Accession # L07592) was cloned in at the 3′-end of this GR-GAL4 construct. The fusion construct prepared in this way (GR-GAL4-humanPPARdelta-LBD) was recloned into the plasmid pcDNA3 (Invitrogen) in order to enable constitutive expression by the cytomegalovirus promoter. This plasmid was linearized with a restriction endonuclease and stably transfected into the previously described cell clone containing the luciferase reporter element. The resulting PPARdelta reporter cell line which contains a luciferase reporter element and constitutively expresses the PPARdelta fusion protein (GR-GAL4-human PPARdelta-LBD) was isolated by selection with zeocin (0.5 mg/ml) and G418 (0.5 mg/ml).
The activity of PPARdelta agonists is determined in a 3-day assay in exact analogy to the procedure already described for the PPARalpha reporter cell line except that the PPARdelta reporter cell line and a specific PPARdelta agonist was used as a standard to control test efficacy.

The target of assay [5] is T2, human PPARalpha (Homo sapiens, UniProt Q07869).
T2 construct: amino acids S167-Y468; expressed in transfected cells; host or cells: HEK (human embryo kidney) cells, stably transfected; plasmid pcDNA3
T2 sequence (Q07869 167-468): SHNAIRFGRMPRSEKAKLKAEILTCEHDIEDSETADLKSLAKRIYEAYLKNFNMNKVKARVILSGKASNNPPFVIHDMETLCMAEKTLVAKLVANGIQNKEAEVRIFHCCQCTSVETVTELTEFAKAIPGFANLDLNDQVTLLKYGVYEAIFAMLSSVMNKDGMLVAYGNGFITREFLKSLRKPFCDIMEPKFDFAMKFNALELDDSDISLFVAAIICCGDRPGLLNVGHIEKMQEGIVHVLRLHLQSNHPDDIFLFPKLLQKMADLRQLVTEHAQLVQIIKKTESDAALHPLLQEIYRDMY
Kind of assay: Cellular PPARalpha assay (luciferase reporter, stably transfected HEK cell line). The conditions noted are these: GR-GAL4-humanPPARalpha-LBD. The format is cell-based. The method, then: Determination of EC50 Values of PPAR Agonists in the Cellular PPARalpha Assay
as §1, with “PPARalpha” for “PPARdelta”, “It” for “In analogy to the assay described for PPARalpha, the PPARdelta reporter cell line also”, “(GR-GAL4-humanPPARalpha-LBD)” for “(GR-GAL4-humanPPARdelta-LBD)”, “GR-GAL4-humanPPARalpha-LBD” for “GR-GAL4-humanPPARdelta-LBD”, “weak” for “little”, “stimulate the” for “stimulate”
The PPARalpha reporter cell line was prepared in two stages. Firstly, the luciferase reporter element was constructed and stably transfected into HEK cells. For this purpose, five binding sites of the yeast transcription factor GAL4 (Accession # AF264724) were cloned in 5′-upstream of a 68 bp-long minimal MMTV promoter (Accession # V01175). The minimal MMTV promoter section contains a […] and a TATA element in order to enable efficient transcription by RNA polymerase II. The cloning and sequencing of the GAL4-MMTV construct took place in analogy to the description of Sambrook J. et. al. (Molecular cloning, Cold Spring Harbor Laboratory Press, 1989). Then the complete Photinus pyralis gene (Accession # M15077) was cloned in 3′-downstream of the GAL4-MMTV element. After sequencing, the luciferase reporter element consisting of five GAL4 binding sites, MMTV promoter and luciferase gene was recloned into a plasmid which confers zeocin resistance in order to obtain the plasmid pdeltaM-GAL4-Luc-Zeo. This vector was transfected into HEK cells in accordance with the statements in Ausubel, F. M. et al. (Current protocols in molecular biology, Vol. 1-3, John Wiley & Sons, Inc., 1995).
In a second step, the PPARalpha fusion protein (GR-GAL4-humanPPARalpha-LBD was introduced into the stable cell clone described. For this purpose, initially the cDNA coding for the N-terminal 76 amino acids of the glucocorticoid receptor (Accession # P04150) was linked to the cDNA section coding for amino acids 1-147 of the yeast transcription factor GAL4 (Accession # P04386). The cDNA of the ligand-binding domain of the human PPARalpha receptor (amino acids S167-Y468; Accession # S74349) was cloned in at the 3′-end of this GR-GAL4 construct. The fusion construct prepared in this way (GR-GAL4-humanPPARalpha-LBD) was recloned into the plasmid pcDNA3 (Invitrogen) in order to enable constitutive expression therein by the cytomegalovirus promoter. This plasmid was linearized with a restriction endonuclease and stably transfected into the previously described cell clone containing the luciferase reporter element. The finished PPARalpha reporter cell line which contains a luciferase reporter element and constitutively expresses the PPARalpha fusion protein (GR-GAL4-human PPARalpha-LBD) was isolated by selection with zeocin (0.5 mg/ml) and G418 (0.5 mg/ml).
The activity of PPARalpha agonists is determined in a 3-day assay which is described below: […]

The conditions of assay [6]: obese, insulin resistant rhesus monkeys; cited from earlier work.
The conditions of assay [7]: diabetic animal model; cited from earlier work.

In the case of `CCCc1c(OCCCSc2nnc(SCC(=O)O)s2)ccc(C(C)=O)c1O` [YM-16638], the plasma lipids entry is recorded as “acts in a similar manner” in assay [1], “significantly lowers” in assay [2] and “significantly lowers” in assay [3].

Regarding `COCCCN(CCc1ccc(-c2noc(=O)[nH]2)c(C)c1)c1nc2ccc(C(F)(F)F)cc2s1` [Example 14, 3-(4-{2-[(3-Methoxy-propyl)-(6-trifluoromethyl-benzothiazol-2-yl)-amino]-ethyl}-2-methyl-phenyl)-4H-[1,2,4]oxadiazol-5-one], the EC50 is 4 nM in assay [4] and 70 nM in assay [5].

Turning to `Cc1cc(SCc2sc(-c3ccc(C(F)(F)F)cc3)nc2C)ccc1OCC(=O)O` [GW501516], in assay [6], the HDL-cholesterol entry is recorded as “raises”, the insulin levels entry was “decreases”, the “plasma LDL-cholesterol” value is reported as “decreases” and the plasma triglycerides entry was “decreases”.

On to `CCCCN(Cc1ccc(-c2noc(=O)[nH]2)c(F)c1)c1nc2ccc(C(F)(F)F)cc2s1` [Example 24, 3-(4-{[Butyl-(6-trifluoromethyl-benzothiazol-2-yl)-amino]-methyl}-2-fluoro-phenyl)-4H-[1,2,4]oxadiazol-5-one], for which the EC50 was 270 nM in assay [4] and 1350 nM in assay [5].

Turning to `Cc1cc(CCN(CC2CCOCC2)c2nc3ccc(C(F)(F)F)cc3s2)ccc1-c1noc(=O)[nH]1` [Example 9, 3-(2-Methyl-4-{2-[(tetrahydro-pyran-4-ylmethyl)-(6-trifluoromethyl-benzothiazol-2-yl)-amino]-ethyl}-phenyl)-4H-[1,2,4]oxadiazol-5-one], the EC50 came to 20 nM in assay [4] and 60 nM in assay [5].

As to `COCCN(CCc1ccc(-c2noc(=O)[nH]2)cc1)c1nc(-c2ccc(Cl)cc2)cs1` [Example 23, 3-(4-{2-[[4-(4-Chloro-phenyl)-thiazol-2-yl]-(2-methoxy-ethyl)-amino]-ethyl}-phenyl)-4H-[1,2,4]oxadiazol-5-one], the concentration for a half-maximal effect (EC50) stood at 650 nM in assay [4] and 820 nM in assay [5].

With `COCCN(Cc1ccc(-c2noc(=O)[nH]2)c(F)c1)c1nc2ccc(C(F)(F)F)cc2s1` [Example 28, 3-(2-Fluoro-4-{[(2-methoxy-ethyl)-(6-trifluoromethyl-benzothiazol-2-yl)-amino]-methyl}-phenyl)-4H-[1,2,4]oxadiazol-5-one], the EC50 amounted to 60 nM in assay [4] and 1020 nM in assay [5].

On to `CN(C)CCN(Cc1ccc(-c2noc(=O)[nH]2)c(C(F)(F)F)c1)c1nc2ccc(C(F)(F)F)cc2s1` [Example 33, 3-(4-{[(2-Dimethylamino-ethyl)-(6-trifluoromethyl-benzothiazol-2-yl)-amino]-methyl}-2-trifluoromethyl-phenyl)-4H-[1,2,4]oxadiazol-5-one trifluoroacetate], for which the values for the EC50 in assay [4] and in assay [5] were 1800 nM and 1100 nM, respectively.

As for `CCCc1c(OCCCOc2ccc(OCC(=O)O)cc2)ccc(C(C)=O)c1O` [Example L-165041], the plasma cholesterol result in assay [7] is recorded as “raises”.

Consider `COCCCN(Cc1ccc(-c2noc(=O)[nH]2)c(F)c1)c1nc(-c2ccc(Cl)cc2)cs1` [Example 39, 3-(4-{[[4-(4-Chloro-phenyl)-thiazol-2-yl]-(3-methoxy-propyl)-amino]-methyl}-2-fluoro-phenyl) -4H-[1,2,4]oxadiazol-5-one], for which the EC50 in assay [4] was found to be 200 nM; in assay [5], 360 nM.
